Measurements published in patent US20140155471A1, “TREATING NEUROLOGICAL DISEASE OR INJURY WITH A DYNAMIN-RELATED PROTEIN 1 (DRP1) ENCODING NUCLEIC ACID” (UNIVERSITY OF ROCHESTER, priority 2011, published 2014).

Experiments:
[1] = In vivo microdialysis and HPLC of mdivi-1 in striatal dialysate (blood-brain barrier crossing); parameters: species or system mice
Experimental: Stereotactic implantation of guide cannula was performed under ketamine/xylazine (65/6 mg/kg i.p.) anesthesia using the following striatal coordinates, relative to bregma: anterior-posterior +0.5 mm, lateral −2.0 mm, dorsal-ventral −1.5 mm (from surface of brain). […] Samples from the same animals were measured for the contents of mdivi-1, MPP+, DA, and its metabolites. Levels of these molecules and the amount of KCl (delivered to the striatum) were calculated on the basis of the standard curves, probe efficiency (˜8%), flow rate, and duration of sample collection as described in Cui et al. “The organic cation transporter-3 is a pivotal modulator of neurodegeneration in the nigrostriatal dopaminergic pathway,” PNAS USA 106: 8043-8048 (2009).
(§1) A 12-channel CoulArray® (ESA Inc., Chelmsford, Mass.) equipped with a highly sensitive amperometric microbore cell (model 5041, ESA Inc.) was used to analyze the content of DA and its metabolites with the cell potential set at +220 mV as described in Cui et al. For measurements of total striatal DA content, mice were sacrificed and their striata were dissected out and stored at −80° C. until analysis. […] Peaks were detected by an ESA 8 Channel CoulArray® system. […]
The ability of Mitochondrial Division Inhibitor-1 (mdivi-1), a Drp1 inhibitor, to cross the blood-brain barrier was assessed. […]

[2] = system: Pink1-/- mice; experiment: Depolarization (KCl)-evoked striatal DA overflow by in vivo microdialysis in Pink1-/- and Pink1+/+ mice; details: mdivi-1 i.p. twice daily for 3 days
Experimental: Stereotactic implantation of guide cannula was performed under ketamine/xylazine (65/6 mg/kg i.p.) anesthesia using the following striatal coordinates, relative to bregma: anterior-posterior +0.5 mm, lateral −2.0 mm, dorsal-ventral −1.5 mm (from surface of brain). Twenty-four hours after recovery from surgery, a microdialysis probe (2-mm membrane, Bioanalytical Systems, Inc., West Lafayette, Ind.) was inserted into the guide cannula and connected to a low torque-dual channel swivel (Instech Laboratories, Inc., Plymouth Meeting, Pa.) which was connected to a syringe pump perfusing with artificial cerebrospinal fluid (aCSF) at 2 μL/min for all studies except mdivi-1 pharmacokinetic studies where the flow rate was 1 μL/min. […] Samples from the same animals were measured for the contents of mdivi-1, MPP+, DA, and its metabolites.

[3] = target: T1, mouse dopamine transporter (Mus musculus, UniProt Q61327); experiment: Transport studies in cells overexpressing dopamine transporter (MPP+ or DA uptake); type: cell-based; details: stable cells overexpressing DAT; substrates MPP+ or DA; mdivi-1 1 or 10 μM
T1 construct: expressed in transfected cells; host or cells: EM4 cells / HEK 293 cells stably transfected with macrophage scavenger receptor
T1 sequence (Q61327 whole entry): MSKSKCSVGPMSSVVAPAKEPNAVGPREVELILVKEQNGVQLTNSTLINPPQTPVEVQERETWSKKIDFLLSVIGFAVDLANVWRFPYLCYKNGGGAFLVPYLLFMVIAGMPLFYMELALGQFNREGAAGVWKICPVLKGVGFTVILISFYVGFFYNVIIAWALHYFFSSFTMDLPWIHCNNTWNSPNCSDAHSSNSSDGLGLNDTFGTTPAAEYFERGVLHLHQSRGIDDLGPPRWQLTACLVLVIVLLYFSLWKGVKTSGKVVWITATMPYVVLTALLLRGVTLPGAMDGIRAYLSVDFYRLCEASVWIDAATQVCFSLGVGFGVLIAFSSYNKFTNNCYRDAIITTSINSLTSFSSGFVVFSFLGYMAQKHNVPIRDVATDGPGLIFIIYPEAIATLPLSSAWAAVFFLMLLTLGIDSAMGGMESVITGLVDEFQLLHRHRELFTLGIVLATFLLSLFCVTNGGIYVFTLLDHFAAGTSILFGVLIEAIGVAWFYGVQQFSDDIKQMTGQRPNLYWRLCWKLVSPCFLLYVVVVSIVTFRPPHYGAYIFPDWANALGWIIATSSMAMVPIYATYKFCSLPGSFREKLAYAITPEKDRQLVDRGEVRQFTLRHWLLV
Experimental: EM4 cells and human embryonic kidney (HEK 293) cells stably transfected with macrophage scavenger to increase their adherence to tissue culture plastic, overexpressing mouse dopamine transporter or empty vector control were grown in 24-well plates. These cells were washed twice and then preincubated for 20 min at 37° C. in Krebs Ringer Hepes (KRH) buffer (125 mM NaCl, 25 mM HEPES, 5.6 mM glucose, 4.8 mM KCl, 1.2 mM KH2PO4, 1.2 mM CaCl2, 1.2 mM MgSO4, pH 7.4), in the presence or absence of mdivi-1 (1, or 10 μM) or GBR12909 (1 μM). This buffer was then replaced with KRH plus or minus MPP+ (200 μM) or dopamine (100 μM), in the presence or absence of mdivi-1 (1, or 10 μM) or GBR12909 (1 μM) for 30 min. To stop the reaction, cells were rinsed with ice-cold buffer and then immediately removed in 5% trichloroacetic acid, sonicated and centrifuged at 15,000 at 4° C. […]. Supernatant was collected for MPP+ and DA quantification using HPLC. Cell pellet was measured for protein concentration using the BCA assay.

[4] = system: MPTP mouse model of PD; experiment: MPTP mouse model, neurorescue (treatment 7 days after last MPTP injection); type: in vivo, C57BL/6 mice; details: mdivi-1 i.p. twice daily for 3 days starting 7 days after last MPTP injection
Experimental: (§2) For all studies, 10-12 week old male C57BL/6 mice were randomly assigned to receive intraperitoneal injections of either MPTP (25 mg/kg, Sigma, St. Louis, Mo.) or saline once daily for 5 days. For the neuroprotection studies, mice received twice daily i.p. injections (20 mg/kg) with mdivi-1 beginning on the day of the first MPTP injection and continued until mice were sacrificed 7 days after last MPTP injection. For the neurorescue studies, mice received twice daily i.p. injections (20 mg/kg) with mdivi-1 beginning 7 days after the last MPTP injection and continued for a total of 3 days. To maximize the data yielded from each animal, mice were sacrificed by decapitation and the freshly removed brains were divided into 3 pieces for separate measures of nigrostriatal damage. […]
(§3) Brains from saline and MPTP treated mice were sectioned (30 μm) and processed for stereological cell counts using the optical fractionator method as described 35. Striatal optical densities of TH immunoreactivity were also quantified.
Stereotactic implantation of guide cannula was performed under ketamine/xylazine (65/6 mg/kg i.p.) anesthesia using the following striatal coordinates, relative to bregma: anterior-posterior +0.5 mm, lateral −2.0 mm, dorsal-ventral −1.5 mm (from surface of brain). […] Samples from the same animals were measured for the contents of mdivi-1, MPP+, DA, and its metabolites. […]

[5] = system: MPTP mouse model of PD; experiment: MPTP mouse model, neuroprotection (active neurodegeneration); type: in vivo, C57BL/6 mice; details: mdivi-1 delivered together with MPTP
Experimental: as §2, with “days.” for “days. To maximize the data yielded from each animal, mice were sacrificed by decapitation and the freshly removed brains were divided into 3 pieces for separate measures of nigrostriatal damage.”
as §3, §1

Question: For COc1cc(-n2c(S)nc3ccccc3c2=O)c(Cl)cc1Cl [mdivi-1, 3-(2,4-dichloro-5-methoxyphenyl)-2-sulfanyl-4(3H)-quinazolinone], which “time of peak of mdivi-1 in striatal dialysate” value ([1]; after an i.p. injection) is on record?
Answer: Its value is 3 h.

Question: What about the “mdivi-1 in the striatal dialysate (ability to cross the blood-brain barrier)” value ([1]; after i.p. injection, in vivo microdialysis, HPLC) of the same molecule?
Answer: Its value is “detected”.

Question: What about the “evoked DA overflow in Pink1-/- mice” value ([2]; 12 month old Pink1-/- mice, high-KCl aCSF) of the same molecule?
Answer: The value was “complete restoration”.

Question: And the “level of evoked DA release in Pink1+/+ mice” value ([2]; Pink1+/+ mice)?
Answer: The value was “did not alter”.

Question: What about the “transport activity of DAT” value [3] of the same molecule?
Answer: Its value is “did not affect”.

Question: What about the “evoked DA overflow in MPTP-lesioned mice” value [4] of the same molecule?
Answer: The value was “improved”.

Question: What about the “regeneration of nigral DA neurons terminals or total DA content” value [4] of the same molecule?
Answer: Its value is “absence of promoting regeneration”.

Question: And the “MPTP induced-loss of dopaminergic cell body terminals and DA content” value [5]?
Answer: Its value is “significantly prevented”.
